Results taken from ChEMBL document CHEMBL3608308, “Design, synthesis and antiproliferative activity of novel heterobivalent hybrids based on imidazo[2,1-b][1,3,4]thiadiazole and imidazo[2,1-b][1,3]thiazole scaffolds” (Eur J Med Chem, 2015).
Activity calls are given as the source filed them. No cut-off for these calls is given here.

Legend:
L1210 [1] = assay: Cytotoxicity against mouse L1210 cells; assay type: functional, cell-based
HL-60 [2] = assay: Induction of DNA laddering in human HL60 cells at 3 to 10 uM incubated for 24 hrs by ethidium bromide staining based gel electrophoresis method; assay type: functional, cell-based
HeLa = assay: Antiproliferative activity against human HeLa cells assessed as inhibition of cell proliferation incubated for 4 days by Coulter counter based assay; assay type: functional; conditions: 96 h
HL-60 [3] = assay: Induction of apoptosis in human HL60 cells assessed as induction of morphological changes by inverted phase contrast microscopy; assay type: functional, cell-based
HL-60 [4] = assay: Induction of apoptosis in human HL60 cells assessed as hypodiploid cells level at 1 uM incubated for 24 hrs by propidium iodide staining based flow cytometry (reference value: 2.6 +/- 0.6%); assay type: functional
HL-60 [5] = assay: Induction of apoptosis in human HL60 cells assessed as increase in cytochrome c release into cytosol at 3 uM incubated for 8 hrs by immunoblot method; assay type: functional, cell-based
HL-60 [6] = assay: Induction of apoptosis in human HL60 cells assessed as cleavage of pro-caspase-9 at 3 uM incubated for 8 hrs by immunoblot method; assay type: functional, cell-based
CCRF-CEM = assay: Antiproliferative activity against human CEM cells assessed as inhibition of cell proliferation incubated for 3 days by Coulter counter based assay; assay type: functional; conditions: 72 h
U-937 [7] = assay: Induction of apoptosis in human U937 cells assessed as induction of increase in apoptotic bodies at 3 uM incubated for 8 hrs by Hoechst 33258 staining based fluorescent microscopy; assay type: functional, cell-based
U-937 [8] = assay: Induction of apoptosis in human U937 cells assessed as induction of cell shrinkage at 3 uM incubated for 8 hrs by Hoechst 33258 staining based fluorescent microscopy; assay type: functional
U-937 [9] = assay: Induction of apoptosis in human U937 cells assessed as induction of morphological changes by inverted phase contrast microscopy; assay type: functional, cell-based
FM3A = assay: Antiproliferative activity against mouse FM3A cells assessed as inhibition of cell proliferation incubated for 2 days by Coulter counter based assay; assay type: functional; conditions: 48 h
U-937 [10] = assay: Induction of apoptosis in human U937 cells assessed as cleavage of pro-caspase-9 at 3 uM incubated for 8 hrs by immunoblot method; assay type: functional, cell-based
U-937 [11] = assay: Induction of apoptosis in human U937 cells over-expressing human Bcl-2 assessed as induction of increase in condensed and fragmented chromatin at 3 uM incubated for 8 hrs by Hoechst 33258 staining based fluorescent microscopy; assay type: functional, cell-based
HL-60 [12] = assay: Induction of apoptosis in human HL60 cells assessed as hypodiploid cells level at 1 and 10 uM incubated for 24 hrs by propidium iodide staining based flow cytometry; assay type: functional, cell-based
SK-MEL-1 = assay: Cytotoxicity against human SK-MEL-1 cells assessed as reduction in cell viability incubated for 72 hrs by MTT assay; assay type: functional, cell-based; conditions: for IC50: SK-MEL-1, 72 h
HL-60 [13] = assay: Induction of apoptosis in human HL60 cells assessed as cleavage of pro-caspase-8 at 3 uM incubated for 8 hrs by immunoblot method; assay type: functional, cell-based
U-937 [14] = assay: Induction of apoptosis in human U937 cells over-expressing human Bcl-2 assessed as induction of morphological changes by inverted phase contrast microscopy; assay type: functional, cell-based
HL-60 [15] = assay: Induction of apoptosis in human HL60 cells assessed as hypodiploid cells level at 1 uM incubated for 24 hrs by propidium iodide staining based flow cytometry relative to untreated control; assay type: functional
U-937 [16] = assay: Cytotoxicity against human U937 cells over-expressing human Bcl-2 assessed as reduction in cell viability incubated for 72 hrs by MTT assay; assay type: functional, cell-based; conditions: for IC50: U-937, 72 h
U-937 [17] = assay: Induction of apoptosis in human U937 cells assessed as cleavage of pro-caspase-3 at 3 uM incubated for 8 hrs by immunoblot method; assay type: functional, cell-based
L1210 [18] = assay: Antiproliferative activity against mouse L1210 cells assessed as inhibition of cell proliferation incubated for 2 days by Coulter counter based assay; assay type: functional; conditions: L1210, 48 h
HL-60 [19] = assay: Induction of apoptosis in human HL60 cells assessed as cleavage of pro-caspase-3 at 3 uM incubated for 8 hrs by immunoblot method; assay type: functional, cell-based
HL-60 [20] = assay: Cytotoxicity against human HL60 cells assessed as reduction in cell viability incubated for 72 hrs by MTT assay; assay type: functional, cell-based; conditions: for IC50: HL-60, 72 h
U-937 [21] = assay: Induction of apoptosis in human U937 cells assessed as induction of increase in condensed and fragmented chromatin at 3 uM incubated for 8 hrs by Hoechst 33258 staining based fluorescent microscopy; assay type: functional, cell-based
U-937 [22] = assay: Induction of apoptosis in human U937 cells over-expressing human Bcl-2 assessed as increase in cytochrome c release into cytosol at 3 uM incubated for 8 hrs by immunoblot method; assay type: functional, cell-based
HL-60 [23] = assay: Induction of apoptosis in human HL60 cells assessed as cleavage of pro-caspase-3/7 activity at 3 uM incubated for 8 hrs DEVD-pNA chromogenic substrate proteolytic cleavage assay; assay type: functional
U-937 [24] = assay: Induction of apoptosis in human U937 cells assessed as increase in cytochrome c release into cytosol at 3 uM incubated for 8 hrs by immunoblot method; assay type: functional, cell-based
U-937 [25] = assay: Induction of apoptosis in human U937 cells assessed as cleavage of pro-caspase-8 at 3 uM incubated for 8 hrs by immunoblot method; assay type: functional, cell-based
U-937 [26] = assay: Induction of apoptosis in human U937 cells over-expressing human Bcl-2 assessed as induction of cell shrinkage at 3 uM incubated for 8 hrs by Hoechst 33258 staining based fluorescent microscopy; assay type: functional
U-937 [27] = assay: Induction of apoptosis in human U937 cells over-expressing human Bcl-2 assessed as induction of increase in apoptotic bodies at 3 uM incubated for 8 hrs by Hoechst 33258 staining based fluorescent microscopy; assay type: functional, cell-based
U-937 [28] = assay: Cytotoxicity against human U937 cells assessed as reduction in cell viability incubated for 72 hrs by MTT assay; assay type: functional, cell-based; conditions: for IC50: U-937, 72 h

Row | Structure (SMILES) | Activity (HL-60 [2]) | IC50 (HeLa) | Activity (HL-60 [3]) | Activity (HL-60 [4]) | Activity (HL-60 [5]) | Activity (HL-60 [6]) | IC50 (CCRF-CEM) | Activity (U-937 [7]) | Activity (U-937 [8]) | Activity (U-937 [9]) | IC50 (FM3A) | Activity (U-937 [10]) | Activity (U-937 [11]) | Activity (HL-60 [12]) | Activity (SK-MEL-1) | IC50 (SK-MEL-1) | Activity (HL-60 [13]) | Activity (U-937 [14]) | fold change (FC) (HL-60 [15]) | IC50 (L1210 [18]) | also measured
1 | C=C(Br)C(=O)O | – | – | – | – | – | – | – | – | – | – | – | – | – | – | – | – | – | – | – | – | IC50 (L1210 [1]): > 120000 nM
2 | C=C(Br)C(=O)Nc1cccc(-c2cn3c(-c4ccc(OC)cc4)csc3n2)c1 | inactive | 860 nM | Active | 11.1% | Active | Active | 500 nM | Active | Active | Active | 620 nM | Active | Active | Dose-dependent effect | Dose-dependent effect | 1000 nM | Active | Active | 4 | 200 nM | Activity (U-937 [16]): Dose-dependent effect; IC50 (U-937 [16]): 370 nM; Activity (U-937 [17]): Active; Activity (HL-60 [19]): Active; Activity (HL-60 [20]): Dose-dependent effect; IC50 (HL-60 [20]): 610 nM; Activity (U-937 [21]): Active; Activity (U-937 [22]): Active; fold change (FC) (HL-60 [23]): 3.8; Activity (U-937 [24]): Active; Activity (U-937 [25]): Active; Activity (U-937 [26]): Active; Activity (U-937 [27]): Active; Activity (U-937 [28]): Dose-dependent effect; IC50 (U-937 [28]): 630 nM
3 | C=C(Br)C(=O)Nc1cccc(-c2cn3nc(-c4ccc(OC)c(OC)c4)sc3n2)c1 | inactive | 610 nM | Active | 16% | Active | Active | 380 nM | Active | Active | Active | 110 nM | Active | Active | Dose-dependent effect | Dose-dependent effect | 770 nM | Active | Active | 6 | 42 nM | Activity (U-937 [16]): Dose-dependent effect; IC50 (U-937 [16]): 210 nM; Activity (U-937 [17]): Active; Activity (HL-60 [19]): Active; Activity (HL-60 [20]): Dose-dependent effect; IC50 (HL-60 [20]): 210 nM; Activity (U-937 [21]): Active; Activity (U-937 [22]): Active; fold change (FC) (HL-60 [23]): 3.2; Activity (U-937 [24]): Active; Activity (U-937 [25]): Active; Activity (U-937 [26]): Active; Activity (U-937 [27]): Active; Activity (U-937 [28]): Dose-dependent effect; IC50 (U-937 [28]): 270 nM
4 | C=C(Br)C(=O)Nc1cccc(-c2cn3nc(-c4cccs4)sc3n2)c1 | inactive | 670 nM | Active | 14.5% | Active | Active | 410 nM | Active | Active | Active | 370 nM | Active | Active | Dose-dependent effect | Dose-dependent effect | 690 nM | Active | Active | 5.6 | 170 nM | Activity (U-937 [16]): Dose-dependent effect; IC50 (U-937 [16]): 270 nM; Activity (U-937 [17]): Active; Activity (HL-60 [19]): Active; Activity (HL-60 [20]): Dose-dependent effect; IC50 (HL-60 [20]): 380 nM; Activity (U-937 [21]): Active; Activity (U-937 [22]): Active; fold change (FC) (HL-60 [23]): 3; Activity (U-937 [24]): Active; Activity (U-937 [25]): Active; Activity (U-937 [26]): Active; Activity (U-937 [27]): Active; Activity (U-937 [28]): Dose-dependent effect; IC50 (U-937 [28]): 570 nM
5 | C=C(Br)C(=O)Nc1cccc(-c2cn3c(-c4ccccc4)csc3n2)c1 | – | 3400 nM | – | – | – | – | 2800 nM | – | – | – | 1300 nM | – | – | – | – | – | – | – | – | 1300 nM | –
6 | COc1ccc(-c2nn3cc(-c4cccc(N)c4)nc3s2)cc1 | – | ≥ 250000 nM | – | – | – | – | ≥ 250000 nM | – | – | – | 74000 nM | – | – | – | – | – | – | – | – | ≥ 250000 nM | –
7 | Nc1cccc(-c2cn3c(-c4ccc(Cl)cc4)csc3n2)c1 | – | 17000 nM | – | – | – | – | 21000 nM | – | – | – | 11000 nM | – | – | – | – | – | – | – | – | 22000 nM | –
8 | Nc1cccc(-c2cn3nc(CCc4ccccc4)sc3n2)c1 | – | 242000 nM | – | – | – | – | 30000 nM | – | – | – | 29000 nM | – | – | – | – | – | – | – | – | 31000 nM | –
9 | Nc1cccc(-c2cn3nc(-c4ccc(F)cc4)sc3n2)c1 | – | ≥ 250000 nM | – | – | – | – | ≥ 250000 nM | – | – | – | 33000 nM | – | – | – | – | – | – | – | – | ≥ 250000 nM | –
10 | Nc1cccc(-c2cn3nc(-c4ccccc4)sc3n2)c1 | – | 26000 nM | – | – | – | – | 33000 nM | – | – | – | 14000 nM | – | – | – | – | – | – | – | – | 32000 nM | –
11 | C=C(Br)C(=O)Nc1cccc(-c2cn3nc(-c4ccc(Cl)cc4)sc3n2)c1 | – | 3000 nM | – | – | – | – | 3200 nM | – | – | – | 2000 nM | – | – | – | – | – | – | – | – | 1400 nM | –
12 | C=C(Br)C(=O)Nc1cccc(-c2cn3nc(-c4ccc(F)cc4)sc3n2)c1 | inactive | 870 nM | Active | 12.1% | Active | Active | 830 nM | Active | Active | Active | 610 nM | Active | Active | Dose-dependent effect | Dose-dependent effect | 1100 nM | Active | Active | 4.6 | 250 nM | Activity (U-937 [16]): Dose-dependent effect; IC50 (U-937 [16]): 370 nM; Activity (U-937 [17]): Active; Activity (HL-60 [19]): Active; Activity (HL-60 [20]): Dose-dependent effect; IC50 (HL-60 [20]): 530 nM; Activity (U-937 [21]): Active; Activity (U-937 [22]): Active; fold change (FC) (HL-60 [23]): 2.3; Activity (U-937 [24]): Active; Activity (U-937 [25]): Active; Activity (U-937 [26]): Active; Activity (U-937 [27]): Active; Activity (U-937 [28]): Dose-dependent effect; IC50 (U-937 [28]): 560 nM
